In ChEMBL document CHEMBL3769364, “Synthesis and structure-activity relationship studies of novel 3,9-substituted α-carboline derivatives with high cytotoxic activity against colorectal cancer cells” (Eur J Med Chem, 2016):

Experiments:
[1] = Cytotoxicity against human Hep3B cells after 48 hrs by MTT assay
[2] = Cytotoxicity against human H460 cells after 48 hrs by MTT assay; conditions: NCI-H460, 48 h
[3] = test system: Detroit 551; assay: Cytotoxicity against human Detroit 551 cells after 48 hrs by MTT assay; conditions: Detroit 551, 48 h
[4] = Cytotoxicity against human COLO205 cells after 48 hrs by MTT assay; conditions: COLO 205, 48 h
[5] = Cytotoxicity against human HL60 cells after 48 hrs by MTT assay; conditions: HL-60, 48 h
[6] = test system: A498; assay: Cytotoxicity against human A498 cells after 48 hrs by MTT assay; conditions: A498, 48 h

Measured: IC50

COC(=O)c1cnc2c(c1)c1ccccc1n2Cc1c(F)cccc1F
> 50 µM: [1] | [2] | [3] | [4] | [5] | [6]

COC(=O)c1cnc2c(c1)c1ccccc1n2Cc1ccc2c(c1)OCO2
> 50 µM: [1] | [2] | [3] | [4] | [5] | [6]

COC(=O)c1cnc2c(c1)c1ccccc1n2Cc1cc(F)cc(F)c1
> 50 µM: [1] | [2] | [3] | [4] | [5] | [6]

COC(=O)c1cnc2c(c1)c1ccccc1n2Cc1ccc(F)cc1
> 50 µM: [1] | [2] | [3] | [4] | [5] | [6]

COC(=O)c1cnc2c(c1)c1ccccc1n2Cc1ccoc1
> 50 µM: [1] | [2] | [3] | [4] | [5] | [6]

COC(=O)c1cnc2c(c1)c1ccccc1n2Cc1ccccc1F
> 50 µM: [1] | [2] | [3] | [4] | [5] | [6]

OCc1cnc2c(c1)c1ccccc1n2Cc1cccs1
> 50 µM: [1] | [2] | [3] | [4] | [5] | [6]

COC(=O)c1cnc2c(c1)c1ccccc1n2Cc1ccc(Cl)cc1Cl
> 50 µM: [1] | [2] | [3] | [4] | [5] | [6]

COC(=O)c1cnc2c(c1)c1ccccc1n2Cc1c(Cl)cccc1Cl
> 50 µM: [1] | [2] | [3] | [4] | [5] | [6]

OCc1cnc2c(c1)c1ccccc1n2Cc1ccoc1
> 50 µM: [1] | [2] | [3] | [4] | [5] | [6]
